Laboratory results published in ChEMBL document CHEMBL1201862, “PubChem BioAssay data set” (2004).
Calls of active or inactive are those of the source.

Assays:
Phosphomannomutase 2 = Phosphomannomutase 2 (Homo sapiens, UniProt O15305); test: Counter screen SAR assay for PMM2 inhibitors via a fluorescence intensity assay. [Related pubchem assays (depositor defined):AID1545, AID1574]
[1] = target: T1, Mannose-6-phosphate isomerase (Homo sapiens, UniProt P34949); test: PMI enzyme inhibitors, confirmation, biochemical, fluorescence intensity (AID 1535)
T1 sequence (P34949 whole entry): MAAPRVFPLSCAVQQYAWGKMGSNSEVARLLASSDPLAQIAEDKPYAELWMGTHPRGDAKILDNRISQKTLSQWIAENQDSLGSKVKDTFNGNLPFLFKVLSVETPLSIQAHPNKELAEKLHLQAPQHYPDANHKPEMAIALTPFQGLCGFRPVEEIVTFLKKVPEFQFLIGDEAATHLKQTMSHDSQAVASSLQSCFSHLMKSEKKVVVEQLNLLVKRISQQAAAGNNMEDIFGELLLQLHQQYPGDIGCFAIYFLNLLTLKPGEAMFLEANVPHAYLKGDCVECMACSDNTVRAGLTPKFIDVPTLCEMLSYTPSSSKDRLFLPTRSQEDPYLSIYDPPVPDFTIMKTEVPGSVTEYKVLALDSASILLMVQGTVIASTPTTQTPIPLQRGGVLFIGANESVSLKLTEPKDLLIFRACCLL

[2] = target: T1, Mannose-6-phosphate isomerase; test: inhibitors of human PMI, primary screen, biochemical, fluorescence intensity, coupled assay (AID 1209)
[3] = target: T2, Beta-adrenergic receptor kinase 1 (Homo sapiens, UniProt P25098); test: GRK2 inhibitors displacing RNA aptamer, dose response, biochemical, flow cytometry beads, FAM-aptamer, powder set 1 (AID 588720)
T2 sequence (P25098 whole entry): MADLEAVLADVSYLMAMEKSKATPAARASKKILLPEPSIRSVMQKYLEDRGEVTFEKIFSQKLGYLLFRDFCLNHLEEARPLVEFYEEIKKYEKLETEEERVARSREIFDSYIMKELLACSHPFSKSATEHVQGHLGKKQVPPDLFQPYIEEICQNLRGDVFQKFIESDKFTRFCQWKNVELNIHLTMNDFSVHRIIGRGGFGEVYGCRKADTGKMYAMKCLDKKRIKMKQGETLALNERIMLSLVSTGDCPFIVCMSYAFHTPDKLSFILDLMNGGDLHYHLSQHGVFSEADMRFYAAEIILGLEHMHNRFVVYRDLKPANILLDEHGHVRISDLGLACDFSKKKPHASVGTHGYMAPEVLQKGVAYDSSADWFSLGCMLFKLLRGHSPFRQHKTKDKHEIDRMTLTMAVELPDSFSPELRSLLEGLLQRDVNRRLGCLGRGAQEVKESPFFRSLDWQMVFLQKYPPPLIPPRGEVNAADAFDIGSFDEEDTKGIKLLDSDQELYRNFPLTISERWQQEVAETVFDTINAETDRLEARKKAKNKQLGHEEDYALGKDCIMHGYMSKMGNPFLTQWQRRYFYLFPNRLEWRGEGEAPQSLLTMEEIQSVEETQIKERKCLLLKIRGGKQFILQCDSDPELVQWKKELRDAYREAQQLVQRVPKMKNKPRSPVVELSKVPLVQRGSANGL

[4] = target: Lysine-specific demethylase 4A (Homo sapiens, UniProt O75164); test: JMJD2A histone demethylase inhibitors, dose response, selectivity assay for GASC-1 inhibitor project, biochemical, DELFIA europium, cherry-picked samples (AID 488840)
Sequence of Lysine-specific demethylase 4A (O75164 whole entry): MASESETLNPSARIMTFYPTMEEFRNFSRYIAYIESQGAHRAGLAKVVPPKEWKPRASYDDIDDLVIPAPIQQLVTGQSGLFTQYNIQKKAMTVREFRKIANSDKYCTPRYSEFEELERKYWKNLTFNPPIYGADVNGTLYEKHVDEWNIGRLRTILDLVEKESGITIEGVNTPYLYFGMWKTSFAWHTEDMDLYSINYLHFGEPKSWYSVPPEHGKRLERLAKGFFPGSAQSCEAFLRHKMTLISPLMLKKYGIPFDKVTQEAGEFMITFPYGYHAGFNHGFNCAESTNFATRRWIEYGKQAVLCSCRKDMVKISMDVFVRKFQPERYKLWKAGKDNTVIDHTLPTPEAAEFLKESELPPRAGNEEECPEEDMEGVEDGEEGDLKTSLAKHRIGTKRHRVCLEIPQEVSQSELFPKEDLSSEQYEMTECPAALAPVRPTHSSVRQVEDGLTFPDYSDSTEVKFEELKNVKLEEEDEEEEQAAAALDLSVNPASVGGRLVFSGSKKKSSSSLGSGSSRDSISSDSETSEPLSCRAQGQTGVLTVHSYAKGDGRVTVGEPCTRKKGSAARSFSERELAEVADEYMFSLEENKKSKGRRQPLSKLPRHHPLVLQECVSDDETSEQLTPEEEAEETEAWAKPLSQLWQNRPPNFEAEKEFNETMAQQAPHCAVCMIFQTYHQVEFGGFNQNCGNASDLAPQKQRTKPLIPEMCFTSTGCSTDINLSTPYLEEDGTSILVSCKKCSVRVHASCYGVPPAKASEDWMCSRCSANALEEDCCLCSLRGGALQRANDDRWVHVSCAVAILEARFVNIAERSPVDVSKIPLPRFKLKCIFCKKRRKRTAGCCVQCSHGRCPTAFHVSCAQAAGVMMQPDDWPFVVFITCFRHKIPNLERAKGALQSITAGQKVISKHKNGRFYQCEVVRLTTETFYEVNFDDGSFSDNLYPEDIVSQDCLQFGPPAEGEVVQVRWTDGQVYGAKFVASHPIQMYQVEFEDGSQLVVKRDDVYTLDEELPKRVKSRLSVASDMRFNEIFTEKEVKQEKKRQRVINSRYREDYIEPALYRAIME

Sequence of Phosphomannomutase 2 (O15305 whole entry): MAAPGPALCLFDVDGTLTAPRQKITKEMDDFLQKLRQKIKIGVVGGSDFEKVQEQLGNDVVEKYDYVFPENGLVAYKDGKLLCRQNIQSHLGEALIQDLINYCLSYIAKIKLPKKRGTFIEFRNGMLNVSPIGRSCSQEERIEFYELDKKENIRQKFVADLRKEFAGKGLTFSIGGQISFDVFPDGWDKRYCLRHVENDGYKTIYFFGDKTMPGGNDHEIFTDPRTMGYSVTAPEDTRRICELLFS

Structure (SMILES): N#CC1=C2SCN(Cc3ccccc3)CN2C(=O)CC1c1ccc2c(c1)OCO2 (stereo not given)
- IC50 (Phosphomannomutase 2): > 100 µM (inactive)
- IC50 [1]: 36.9 µM (active)
- IC50 [2]: 16 µM (active)

Structure (SMILES): Cc1cccc(CCNC(=O)CCS(=O)(=O)c2ccc(Br)cc2)c1
- EC50 [3]: 22.3 µM (inactive)

Structure (SMILES): O=c1n(Cc2ccccc2)c2cc(Cl)cnc2n1Cc1ccccc1
- AC50 [4]: 9.18 µM (active)
